Bounds are passed on as bounds.

What all share (format): cell-based
For one assay, the target named is T1, Y1R (Homo sapiens, UniProt P25929).
T1 sequence (P25929 1-384): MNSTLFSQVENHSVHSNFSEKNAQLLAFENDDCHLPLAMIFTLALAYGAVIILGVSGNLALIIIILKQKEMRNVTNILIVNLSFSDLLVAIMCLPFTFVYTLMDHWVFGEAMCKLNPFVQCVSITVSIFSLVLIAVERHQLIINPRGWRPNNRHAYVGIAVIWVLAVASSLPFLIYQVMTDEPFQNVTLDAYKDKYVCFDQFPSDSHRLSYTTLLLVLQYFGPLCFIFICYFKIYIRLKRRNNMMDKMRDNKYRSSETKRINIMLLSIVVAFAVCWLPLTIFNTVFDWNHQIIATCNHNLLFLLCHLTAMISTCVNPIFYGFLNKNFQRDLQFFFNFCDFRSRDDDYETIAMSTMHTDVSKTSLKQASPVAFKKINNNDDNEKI
Put plainly: CaFlux Assay (FLIPR), Y1R.

The target of another assay is Y4R (Homo sapiens, UniProt P50391). Put plainly: CaFlux Assay (FLIPR), Y4R.
Y4R, sequence (P50391 whole entry): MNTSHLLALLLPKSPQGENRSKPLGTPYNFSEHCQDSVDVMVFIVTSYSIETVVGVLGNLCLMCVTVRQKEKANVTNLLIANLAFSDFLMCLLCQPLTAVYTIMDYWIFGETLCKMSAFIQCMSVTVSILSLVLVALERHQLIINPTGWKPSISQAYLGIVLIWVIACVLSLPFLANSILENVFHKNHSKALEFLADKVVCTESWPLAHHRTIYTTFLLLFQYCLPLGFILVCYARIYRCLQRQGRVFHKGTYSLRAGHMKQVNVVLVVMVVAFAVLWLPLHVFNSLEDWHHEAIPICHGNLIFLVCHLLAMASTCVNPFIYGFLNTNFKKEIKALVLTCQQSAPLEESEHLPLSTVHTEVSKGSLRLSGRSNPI
Another assay concerns the target T2, Y5R (Homo sapiens, UniProt Q15761).
T2 sequence (Q15761 1-445): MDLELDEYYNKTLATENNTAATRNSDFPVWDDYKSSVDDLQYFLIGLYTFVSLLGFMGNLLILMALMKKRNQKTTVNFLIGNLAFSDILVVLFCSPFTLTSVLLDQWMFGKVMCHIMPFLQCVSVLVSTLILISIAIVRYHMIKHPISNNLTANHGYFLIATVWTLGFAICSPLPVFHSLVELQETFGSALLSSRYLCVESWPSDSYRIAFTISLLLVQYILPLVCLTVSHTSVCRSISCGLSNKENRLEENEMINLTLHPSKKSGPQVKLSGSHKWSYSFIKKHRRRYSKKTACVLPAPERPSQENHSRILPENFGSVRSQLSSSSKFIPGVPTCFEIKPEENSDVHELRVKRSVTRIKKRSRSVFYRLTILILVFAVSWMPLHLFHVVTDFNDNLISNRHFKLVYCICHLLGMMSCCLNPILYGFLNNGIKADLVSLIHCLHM
The assay can be described thus: CaFlux Assay (FLIPR), Y5R.

Assay [1] has as its target T3, hNPY2R (Homo sapiens, UniProt P49146).
T3 sequence (P49146 1-381): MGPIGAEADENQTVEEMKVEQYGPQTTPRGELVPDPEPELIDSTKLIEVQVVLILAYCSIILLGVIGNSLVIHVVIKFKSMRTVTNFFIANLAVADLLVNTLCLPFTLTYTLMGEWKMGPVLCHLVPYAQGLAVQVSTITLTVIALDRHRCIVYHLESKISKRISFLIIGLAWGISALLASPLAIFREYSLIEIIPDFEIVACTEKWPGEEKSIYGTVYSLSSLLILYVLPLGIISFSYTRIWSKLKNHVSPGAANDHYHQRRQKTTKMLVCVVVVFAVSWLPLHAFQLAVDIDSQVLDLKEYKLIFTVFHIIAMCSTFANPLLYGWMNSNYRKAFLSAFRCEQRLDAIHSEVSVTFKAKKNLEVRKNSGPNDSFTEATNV
The assay can be described thus: cAMP Agonist Assay, HEK293/hNPY2R. Also noted: expressed in transfected cells; host or cells: HEK293/hNPY2R (G418 selection). As for the experimental part:
In this example, the following materials were used: 384-well plate; Tropix cAMP-Screen Kit; cAMP ELISA System (Applied Biosystems, cat. #T1505; CS 20000); Forskolin (Calbiochem cat. # 344270); cells: HEK293/hNPY2R; growth medium: Dulbecco's modified eagle medium (D-MEM, Gibco); 10% Fetal bovine serum (FBS, Gibco), heat-inactivated; 1% Penicillin/Streptomycin (Pen 10000 unit/mL: Strep […], Gibco); […] G418 (Geneticin, Gibco cat. # 11811-031); and plating medium: DMEM/F12 w/o phenol red (Gibco); 10% FBS (Gibco, cat. # 10082-147), heat-inactivated; 1% Penicillin/Streptomycin (Gibco, cat. # 15140-122); […] G418 (Geneticin, Gibco, cat. # 11811-031).
On the first day, medium was discarded, and the monolayer cells were washed with 10 mL PBS per flask (T225). After decanting with PBS, 5 mL VERSENE (Gibco, cat #1504006) was used to dislodge the cells (5 min @37 C). The flask was gently tapped and the cell suspension was pooled. Each flask was rinsed with 10 mL plating medium and centrifuged at 1000 rpm for 5 min. The suspension was pooled and counted. The suspension was resuspended in plating medium at a density of 2.0×10^5 cells/mL for HEK293/hNPY2R. 50 microliters of cells (HEK293/hNPY2R-10,000 cells/well) were transferred into the 384-well plate using Multi-drop dispenser. The plates were incubated at 37° C. overnight. On the second day, the cells were checked for 75-85% confluence. The media and reagents were allowed to come to room temperature. Before the dilutions were prepared, the stock solution of stimulating compound in dimethyl sulphoxide (DMSO, Sigma, cat #D2650) was allowed to warm up to 32 C for 5-10 min. The dilutions were prepared in DMEM/F12 with 0.5 mM 3-Isobutyl-1-methylxanthine (IBMX, Calbiochem, cat #410957) and 0.5 mg/mL BSA. The final DMSO concentration in the stimulation medium was 1.1% with Forskolin concentration of 5 μM. The cell medium was tapped off with a gentle inversion of the cell plate on a paper towel. 50 μL of stimulation medium was placed per well (each concentration done in four replicates). The plates were incubated at room temperature for 30 min, and the cells were checked under a microscope for toxicity. After 30 minutes of treatment, the stimulation media was discarded and […] of Assay Lysis Buffer (provided in the Tropix kit) was added. The plates were incubated for 45 min @ 37° C. 20 μL of the lysate was transferred from stimulation plates into the pre-coated antibody plates (384-well) from the Tropix kit. 10 μL of AP conjugate and 20 μL of anti-cAMP antibody was added. The plates were incubated at room temperature while shaking for 1 hour. The plates were then washed 5 times with Wash Buffer, 70 μL per well for each wash. The plates were tapped to dry. 30 μL/well of CSPD/Saphire-II RTU substrate/enhancer solution was added and incubated for 45 min @ RT (shake). Signal for 1 sec/well in a Luminometer. (VICTOR-V) was measured.

In assay [2] the target is T3, hNPY2R. Put plainly: CaFlux Assay (FLIPR), Y2R. Also noted: expressed in transfected cells; host or cells: HEK-293 stably transfected with G protein chimera Gαqi9. The procedure:
HEK-293 cells were stably transfected with the G protein chimera Gαqi9 and the hygromycin-B resistance gene were further transfected with the human NPY2 receptor and G418 antibiotic selection. Following selection in both hygromycin-B and G418, individual clones were assayed for their response to PYY. The transfected cells were cultured in DMEM medium supplemented with 10% fetal bovine serum, 50 μg/mL hygromycin-B, 2 mM glutamine, 100 U/mL penicillin, 100 μg/mL streptomycin and 250 μg/mL G418. Cells are harvested with trypsin-EDTA and counted using ViaCount reagent. The cell suspension volume is adjusted to 4.8×10^5 cells/mL with complete growth media. Aliquots of 25 μL are dispensed into 384 well Poly-D Lysine coated black/clear microplates (Falcon) and the microplates were placed in a 37° C. CO2 incubator overnight. Loading Buffer (Calcium-3 Assay Kit, Molecular Devices) was prepared by dissolving the contents of one vial (Express Kit) into […] Hank's Balanced Salt Solution containing 20 mM HEPES and 5 mM probenecid. Aliquots of 25 μL of diluted dye were dispensed into the cell plates and the plates are then incubated for 1 hour at 37° C. During the incubation, test compounds were prepared at 3.5× the desired concentration in HBSS (20 mM HEPES)/0.05% BSA/1% DMSO and transferred to a 384-well plate for use on FLIPR. After incubation, both the cell and compound plates were brought to the FLIPR and 20 μL of the diluted compounds were transferred to the cell plates by the FLIPR. During the assay, fluorescence readings were taken simultaneously from all 384 wells of the cell plate every 1.5 seconds. Five readings were taken to establish a stable baseline, and then 20 μL of sample was rapidly (30 μL/sec) and simultaneously added to each well of the cell plate. The fluorescence was continuously monitored before, during and after sample addition for a total elapsed time of 100 seconds. Responses (increase in peak fluorescence) in each well following addition were determined. The initial fluorescence reading from each well, prior to ligand stimulation, was used as a zero baseline value for the data from that well. The responses are expressed as % of maximal response of the positive control.

For orientation: EC50 means the concentration at which the effect is half-maximal. In the case of `CCCCCCCCCCCCCCCC(=O)NCCCCCC(=O)NCCCC[C@H](NC(=O)[C@@H](NC(=O)CCOCCOCCOCCOCCOCCOCCOCCOCCOCCOCCOCCOCCOCCOCCOCCOCCOCCOCCOCCOCCOCCOCCOCCOC)[C@@H](C)CC)C(=O)N1CCN(c2ccc3ncn(CC(=O)N[C@@H](CCCNC(=N)N)C(=O)N[C@@H](Cc4c[nH]cn4)C(=O)N[C@@H](Cc4ccc(O)cc4)C(=O)N[C@@H](CC(C)C)C(=O)N[C@@H](CC(N)=O)C(=O)N[C@@H](Cc4c[nH]c5ccccc45)C(=O)N[C@H](C(=O)N[C@H](C(=O)N[C@@H](CCCNC(=N)N)C(=O)N[C@@H](CCC(N)=O)C(=O)N(C)[C@@H](CCCNC(=N)N)C(=O)N[C@@H](Cc4ccc(O)cc4)C(N)=O)[C@@H](C)O)C(C)C)c(=O)c3c2)CC1` [Example 11], the EC50 is above 5000 nM on Y1R; above 5000 nM on Y4R; 915 nM on Y5R; 0.08 nM at hNPY2R [1]; 0.058 nM at hNPY2R [2].

Consider `CCCCCCCCCCCCCCCC(=O)NCCOCCNC(=O)CCC(=O)NCCCC[C@H](NC(=O)[C@@H](NC(=O)COCCOCCOCCOCCOCCOC)[C@@H](C)CC)C(=O)N1CCN(c2ccc3ncn(CC(=O)N[C@@H](CCCNC(=N)N)C(=O)N[C@@H](Cc4c[nH]cn4)C(=O)N[C@@H](Cc4ccc(O)cc4)C(=O)N[C@@H](CC(C)C)C(=O)N[C@@H](CC(N)=O)C(=O)N[C@@H](Cc4c[nH]c5ccccc45)C(=O)N[C@H](C(=O)N[C@H](C(=O)N[C@@H](CCCNC(=N)N)C(=O)N[C@@H](CCC(N)=O)C(=O)N(C)[C@@H](CCCNC(=N)N)C(=O)N[C@@H](Cc4ccc(O)cc4)C(N)=O)[C@@H](C)O)C(C)C)c(=O)c3c2)CC1` [Example 12], for which the concentration for a half-maximal effect (EC50) on Y1R was above 5000 nM; at Y4R it was above 5000 nM; on Y5R it was 527 nM; at hNPY2R [1], 0.09 nM; at hNPY2R [2], 0.097 nM.

On to `CCCCCCCCCCCCCCCC(=O)NCCOCCNC(=O)CCC(=O)NCCCC[C@H](NC(=O)[C@@H](NC(=O)CCOCCOCCOCCOCCOCCOCCOCCOCCOCCOCCOCCOC)[C@@H](C)CC)C(=O)N1CCN(c2ccc3ncn(CC(=O)N[C@@H](CCCNC(=N)N)C(=O)N[C@@H](Cc4c[nH]cn4)C(=O)N[C@@H](Cc4ccc(O)cc4)C(=O)N[C@@H](CC(C)C)C(=O)N[C@@H](CC(N)=O)C(=O)N[C@@H](Cc4c[nH]c5ccccc45)C(=O)N[C@H](C(=O)N[C@H](C(=O)N[C@@H](CCCNC(=N)N)C(=O)N[C@@H](CCC(N)=O)C(=O)N(C)[C@@H](CCCNC(=N)N)C(=O)N[C@@H](Cc4ccc(O)cc4)C(N)=O)[C@@H](C)O)C(C)C)c(=O)c3c2)CC1` [Example 13], for which the EC50 on Y1R was above 5000 nM; at Y4R, above 5000 nM; at Y5R, 401 nM; at hNPY2R [1], 0.15 nM; at hNPY2R [2], 0.055 nM.

In the case of `CCCCCCCCCCCCCCCC(=O)NCCOCCNC(=O)CCC(=O)NCCCC[C@H](NC(=O)[C@@H](NC(=O)CCOCCOCCOCCOCCOCCOCCOCCOCCOCCOCCOCCOCCOCCOCCOCCOC)[C@@H](C)CC)C(=O)N1CCN(c2ccc3ncn(CC(=O)N[C@@H](CCCNC(=N)N)C(=O)N[C@@H](Cc4c[nH]cn4)C(=O)N[C@@H](Cc4ccc(O)cc4)C(=O)N[C@@H](CC(C)C)C(=O)N[C@@H](CC(N)=O)C(=O)N[C@@H](Cc4c[nH]c5ccccc45)C(=O)N[C@H](C(=O)N[C@H](C(=O)N[C@@H](CCCNC(=N)N)C(=O)N[C@@H](CCC(N)=O)C(=O)N(C)[C@@H](CCCNC(=N)N)C(=O)N[C@@H](Cc4ccc(O)cc4)C(N)=O)[C@@H](C)O)C(C)C)c(=O)c3c2)CC1` [Example 14], the EC50 at Y1R is above 5000 nM; on Y4R, above 5000 nM; on Y5R, 370 nM; at hNPY2R [1], 0.08 nM; at hNPY2R [2] it was 0.032 nM. Also, the “Y5R FLIPR agonist character (partial agonist mark)” value on Y5R (FLIPR) is recorded as “P.A”.

The record behind these values is patent US20110172147A1, “NEUROPEPTIDE-2 RECEPTOR (Y-2R) AGONISTS” (priority 2009, published 2011).
